Patent publication US12146004B2, “Polymyxin compounds and uses thereof” (priority 2014, dated 2024)
≈ marks a conversion by molar mass, not a printed value.

What was measured:
Format in all cases: cell-based
[1] = system: Klebsiella pneumoniae
Method: (§1) To evaluate the potency and spectrum of the compounds, susceptibility testing was performed against up to nine strains of each of the Gram negative pathogens, Escherichia coli, Pseudomonas aeruginosa, Klebsiella pneumoniae and Acinetobacter baumannii.
(§2) The values in Table 2 are MIC (μg/mL) against strains of E. coli, K. pneumoniae, P. aeruginosa and A. baumanii, including strains which show elevated MICs to Polymyxin.
(§3) The values in Table 2A are MIC (μg/mL).
(§4) The in vitro activity of compounds 26 and C7 (FADDI-02) against resistant bacterial strains was compared. The resistant strains included including Escherichia coli, Pseudomonas aeruginosa, Klebsiella pneumoniae and Acinetobacter baumannii strains. The data is provided in Table 2C, where the strains are identified. The values in Table 2 are MIC (μg/mL).

[2] = system: Escherichia coli
Method: as §1, §2, §3, §4

[3] = system: Acinetobacter baumannii
Method: as §1, §2, §3, §4

[4] = system: Pseudomonas aeruginosa
Method: as §1, §2, §3, §4

SMILES | MIC K. pneumoniae 062 [1] [µg/mL] | MIC K. pneumoniae 063 [1] [µg/mL] | MIC K. pneumoniae 064 [1] [µg/mL] | MIC K. pneumoniae 065 [1] [µg/mL] | MIC K. pneumoniae 066 [1] [µg/mL] | MIC K. pneumoniae 067 [1] [µg/mL] | MIC K. pneumoniae ATCC 4352 [1] [µg/mL] | MIC E. coli 058 [2] [µg/mL] | MIC E. coli 059 [2] [µg/mL] | MIC E. coli 060 [2] [µg/mL] | MIC E. coli 061 [2] [µg/mL] | MIC E. coli ATCC 25922 [2] [µg/mL] | MIC A. baumanii 053 [3] [µg/mL] | MIC A. baumanii 056 [3] [µg/mL] | MIC A. baumanii ATCC BAA-747 [3] [µg/mL] | MIC P. aeruginosa 068 [4] [µg/mL] | MIC P. aeruginosa 070 [4] [µg/mL] | MIC P. aeruginosa ATCC 27853 [4] [µg/mL]
CC(C)CC1CNCC(C(=O)N[C@H](C(=O)N[C@@H](CN)C(=O)N[C@H]2CCNC(=O)[C@H]([C@@H](C)O)NC(=O)[C@H](CCN)NC(=O)[C@H](CCN)NC(=O)[C@H](CC(C)C)NC(=O)[C@@H](Cc3ccc(Br)cc3)NC(=O)[C@H](CCN)NC2=O)C(C)O)C1 (single isomer, unassigned; isomer 1) [Example 11, (trans-5-(isobutyl-piperidine)-3-carbonyl L-Thr-L-Dap-polymyxin [D-(4-bromo Phe)]-6] hept apeptide Isomer 1] | >64 | >64 | >64 | 64 (≈ 53.5 µM) | >64 | >64 | 1 (≈ 0.837 µM) | 16 (≈ 13.4 µM) | 32 (≈ 26.8 µM) | 16 (≈ 13.4 µM) | 64 (≈ 53.5 µM) | 1 (≈ 0.837 µM) | >64 | 32 (≈ 26.8 µM) | 2 (≈ 1.67 µM) | 8 (≈ 6.69 µM) | 16 (≈ 13.4 µM) | 1 (≈ 0.837 µM)
CC(C)CC(CN)C(=O)N[C@H](C(=O)N[C@@H](CN)C(=O)N[C@H]1CCNC(=O)[C@H]([C@@H](C)O)NC(=O)[C@H](CCN)NC(=O)[C@H](CCN)NC(=O)[C@H](CC(C)C)NC(=O)[C@@H](Cc2ccc(Br)cc2)NC(=O)[C@H](CCN)NC1=O)C(C)O (single isomer, unassigned; isomer 1) [Example 13, 2-aminomethyl-4-methyl pentanoyl polymyxin L-Thr-L-Dap-polymyxin [D-(4-bromo Phe)]-6]heptapeptide. Isomer 1] | >64 | >64 | >64 | >64 | >64 | >64 | 0.5 (≈ 0.433 µM) | 32 (≈ 27.7 µM) | 32 (≈ 27.7 µM) | 32 (≈ 27.7 µM) | >64 | 1 (≈ 0.866 µM) | >64 | >64 | >8 | 32 (≈ 27.7 µM) | 64 (≈ 55.4 µM) | 0.5 (≈ 0.433 µM)
CC(C)CC(CN)C(=O)N[C@H](C(=O)N[C@@H](CN)C(=O)N[C@H]1CCNC(=O)[C@H]([C@@H](C)O)NC(=O)[C@H](CCN)NC(=O)[C@H](CCN)NC(=O)[C@H](CC(C)C)NC(=O)[C@@H](Cc2ccc(-c3ccccc3)cc2)NC(=O)[C@H](CCN)NC1=O)C(C)O (single isomer, unassigned; isomer 1) [Example 15, 2-aminomethyl-4-mehtly pentanoyl polymyxin L-Thr-L-Dap-polymyxin [D-(4-phenyl Phe)]-6]heptapeptide. Isomer 1] | >64 | >64 | >64 | 64 (≈ 55.5 µM) | 64 (≈ 55.5 µM) | >64 | 0.5 (≈ 0.434 µM) | 32 (≈ 27.8 µM) | 16 (≈ 13.9 µM) | 32 (≈ 27.8 µM) | 64 (≈ 55.5 µM) | 1 (≈ 0.868 µM) | >64 | >64 | 8 (≈ 6.94 µM) | 16 (≈ 13.9 µM) | 32 (≈ 27.8 µM) | 1 (≈ 0.868 µM)
CCCCCC/C=C/c1ccc(C[C@H]2NC(=O)[C@H](CCN)NC(=O)[C@@H](NC(=O)[C@H](CN)NC(=O)[C@@H](NC(=O)C3CNCC(CC(C)C)C3)C(C)O)CCNC(=O)[C@H]([C@@H](C)O)NC(=O)[C@H](CCN)NC(=O)[C@H](CCN)NC(=O)[C@H](CC(C)C)NC2=O)cc1 (single isomer, unassigned; isomer 1) [Example 17, (trans-5-(isobutyl-piperidine)-3-carbonyl L-Thr-L-Dap-polymyxin [D-(4-(E)-oct-1-enyl) Phe]-6]heptapeptide Isomer 1] | 4 (≈ 3.26 µM) | 16 (≈ 13 µM) | 8 (≈ 6.52 µM) | 4 (≈ 3.26 µM) |  | 32 (≈ 26.1 µM) | 2 (≈ 1.63 µM) | 2 (≈ 1.63 µM) | 2 (≈ 1.63 µM) | 2 (≈ 1.63 µM) | 2 (≈ 1.63 µM) | 2 (≈ 1.63 µM) | 2 (≈ 1.63 µM) | 2 (≈ 1.63 µM) | 2 (≈ 1.63 µM) | 4 (≈ 3.26 µM) | 4 (≈ 3.26 µM) | 2 (≈ 1.63 µM)
